The experiment relates to L1210 leukemia ip in BDF1 mice, survival T/C. In words: NCI In Vivo Anticancer Drug Screen. Data for tumor model L1210 Leukemia (intraperitoneal) in B6D2F1 (BDF1) mice. The settings on record: endpoint: mean survival time, higher = longer survival. Put shortly:
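Value reflects the ratio of survival in compound-treated mice to survival in vehicle-treated controls, with both groups carrying the same transplanted tumor.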

Where [1] appears, read: dose: 100.0 mg/kg/injection, schedule: Q01DX009 (ip), vehicle: Klucel (hydroxypropylcellulose) (HPC).
Where [2] appears, read: dose: 200.0 mg/kg/injection, schedule: Q01DX009 (ip), vehicle: Klucel (hydroxypropylcellulose) (HPC).
Setting [3] is: dose: 400.0 mg/kg/injection, schedule: Q01DX009 (ip), vehicle: Klucel (hydroxypropylcellulose) (HPC).
Where [4] appears, read: dose: 50.0 mg/kg/injection, schedule: Q01DX009 (ip), vehicle: saline with Tween-80.
Where [5] appears, read: dose: 100.0 mg/kg/injection, schedule: Q01DX009 (ip), vehicle: saline with Tween-80.
The mark [6] stands for this setting: dose: 100.0 mg/kg/injection, schedule: Q01DX001 (ip), vehicle: carboxymethylcellulose (CMC).
The mark [7] stands for this setting: dose: 200.0 mg/kg/injection, schedule: Q01DX001 (ip), vehicle: carboxymethylcellulose (CMC).
[8] abbreviates: dose: 400.0 mg/kg/injection, schedule: Q01DX001 (ip), vehicle: carboxymethylcellulose (CMC).
[9] abbreviates: dose: 100.0 mg/kg/injection, schedule: Q04DX003 (ip), vehicle: saline with Tween-80.
[10] abbreviates: dose: 200.0 mg/kg/injection, schedule: Q04DX003 (ip), vehicle: saline with Tween-80.
Where [11] appears, read: dose: 100.0 mg/kg/injection, schedule: Q01DX001 (ip), vehicle: saline.
Setting [12] is: dose: 200.0 mg/kg/injection, schedule: Q01DX001 (ip), vehicle: saline.
Where [13] appears, read: dose: 400.0 mg/kg/injection, schedule: Q01DX001 (ip), vehicle: saline.
Setting [14] is: dose: 100.0 mg/kg/injection, schedule: Q01DX001 (ip), vehicle: Klucel (hydroxypropylcellulose) (HPC).
The mark [15] stands for this setting: dose: 200.0 mg/kg/injection, schedule: Q01DX001 (ip), vehicle: Klucel (hydroxypropylcellulose) (HPC).
Setting [16] is: dose: 400.0 mg/kg/injection, schedule: Q01DX001 (ip), vehicle: Klucel (hydroxypropylcellulose) (HPC).

Where “and” joins values, the source holds several entries; their conditions need not be identical. Equal values may be shown once. Inconclusive results and toxic doses are left out.

For the compound `O=S(=O)(Nc1cccc(C(F)(F)F)c1)c1ccccc1`, the T/C was 106 % of control under setting [1]; 98 % of control (dose: 100.0 mg/kg/injection, schedule: Q04DX003 (ip), vehicle: Klucel (hydroxypropylcellulose) (HPC)); 107 % of control under setting [2]; 97 % of control (dose: 200.0 mg/kg/injection, schedule: Q04DX003 (ip), vehicle: Klucel (hydroxypropylcellulose) (HPC)); 101 % of control under setting [3]; 95 % of control (dose: 400.0 mg/kg/injection, schedule: Q04DX003 (ip), vehicle: Klucel (hydroxypropylcellulose) (HPC)).
Consider `COc1cc(CC(=O)NO)cc(OC)c1OC`, for which the T/C is 93 % of control (dose: 50.0 mg/kg/injection, schedule: Q01DX005 (ip), vehicle: saline with Tween-80); 100 % of control under setting [4]; 110 % of control (dose: 100.0 mg/kg/injection, schedule: Q01DX005 (ip), vehicle: saline with Tween-80); 96 % of control under setting [5]; 93 % of control (dose: 200.0 mg/kg/injection, schedule: Q01DX005 (ip), vehicle: saline with Tween-80); 100 % of control (dose: 200.0 mg/kg/injection, schedule: Q01DX009 (ip), vehicle: saline with Tween-80).
Take `CC(C)CSC(SCC(C)C)C(OC(=O)c1ccccc1)C(OC(=O)c1ccccc1)C(COC(=O)c1ccccc1)OC(=O)c1ccccc1` (stereo not given): the T/C by setting is: (dose: 100.0 mg/kg/injection, schedule: Q04DX002 (ip), vehicle: Klucel (hydroxypropylcellulose) (HPC)) 103 % of control; (dose: 200.0 mg/kg/injection, schedule: Q04DX002 (ip), vehicle: Klucel (hydroxypropylcellulose) (HPC)) 94 % of control; (dose: 400.0 mg/kg/injection, schedule: Q04DX002 (ip), vehicle: Klucel (hydroxypropylcellulose) (HPC)) 87 % of control.
`CC(NC(=O)c1ccc2ccccc2n1)C(=O)O` (stereo not given): the T/C under setting [6] was 92 % of control, the T/C under setting [7] was 87 % of control and the T/C under setting [8] is 89 % of control.
For `CCOc1nn2nnnc2c2ccccc12`, the T/C by setting is: (dose: 37.5 mg/kg/injection, schedule: Q04DX003 (ip), vehicle: saline with Tween-80) 97 % of control; (dose: 75.0 mg/kg/injection, schedule: Q04DX003 (ip), vehicle: saline with Tween-80) 97 % of control; (dose: 150.0 mg/kg/injection, schedule: Q04DX003 (ip), vehicle: saline with Tween-80) 103 % of control.
`C[CH2][Ge]([CH2]C)([CH2]C)[CH2]CO`: the T/C runs as follows: (dose: 5.0 mg/kg/injection, schedule: Q04DX002 (ip), vehicle: saline with Tween-80) 103 % of control; (dose: 10.0 mg/kg/injection, schedule: Q04DX002 (ip), vehicle: saline with Tween-80) 106 % of control; (dose: 20.0 mg/kg/injection, schedule: Q04DX002 (ip), vehicle: saline with Tween-80) 103 % of control.
Turning to `O=C(O)CCc1nc2ccccc2c(=O)[nH]1`, the T/C is, setting by setting: (dose: 50.0 mg/kg/injection, schedule: Q01DX009 (ip), vehicle: Klucel (hydroxypropylcellulose) (HPC)) 100 % of control; under setting [1], 100 % of control; under setting [2], 100 % of control.
Take `Nc1ccc2sc3ccccc3c2c1`: the T/C is 106 % of control under setting [4], 105 % of control under setting [5], 95 % of control under setting [9] and 104 % of control under setting [10].
For the compound `O=S(=O)(Cc1ccccc1)C(Cl)c1ccccc1` (stereo not given), the T/C runs as follows: under setting [11], 115 % of control; under setting [12], 101 % of control; under setting [13], 89 % of control.
Regarding `COC1CCC2(C)C(=CCC3C2CCC2(C)C(C(C)CCCC(C)C)CCC32)C1` (stereo not given), the T/C is, setting by setting: under setting [14], 97 % of control; under setting [15], 94 % of control; under setting [16], 94 % of control.
Consider `C/C(=N\N=C(N)N)c1ccc(NC(N)=S)cc1`, for which the T/C by setting is: (dose: 20.0 mg/kg/injection, schedule: Q01DX005 (ip), vehicle: saline) 106 % of control; (dose: 40.0 mg/kg/injection, schedule: Q01DX005 (ip), vehicle: saline) 97 % of control.
For the compound `Cc1ccc(Nc2cc(N)nc(N)n2)cc1`, the T/C (dose: 25.0 mg/kg/injection, schedule: Q01DX Z (ip), vehicle: methylcellulose (MC)) is 100 % of control.
Regarding `CCCCCCCCCC(=O)N/N=C/c1cccs1`, the T/C reads like this: under setting [1], 101 % of control; under setting [2], 101 % of control; under setting [3], 89 % of control.
For `COC1(OC)C2(Cl)C(Cl)=C(Cl)C1(Cl)C1C2CS1(=O)=O` (stereo not given), the T/C was 100 % of control (dose: 50.0 mg/kg/injection, schedule: Q01DX001 (ip), vehicle: carboxymethylcellulose (CMC)); 92 % of control under setting [6]; 100 % of control under setting [7]; 89 % of control under setting [8].
Consider `CCCCCCCCCCCCNC(=O)C[N+](C)(C)Cc1ccc2c(c1)CCCC2`, for which the T/C is 106 % of control (dose: 2.5 mg/kg/injection, schedule: Q01DX009 (ip), vehicle: saline with Tween-80) and 94 % of control (dose: 5.0 mg/kg/injection, schedule: Q01DX009 (ip), vehicle: saline with Tween-80).
For `Nc1ccc(-n2cnc3c(=O)[nH]c(N)nc32)cc1`, the T/C is, setting by setting: under setting [9], 98 % of control; under setting [10], 98 % of control; (dose: 400.0 mg/kg/injection, schedule: Q04DX003 (ip), vehicle: saline with Tween-80) 92 % of control.
Consider `Cc1ccc(C(=O)Nc2ncn(C3CC(O)C(CO)O3)c(=O)n2)cc1` (stereo not given), for which the T/C is, setting by setting: (dose: 6.25 mg/kg/injection, schedule: Q04DX003 (ip), vehicle: saline with Tween-80) 114 % of control; (dose: 12.5 mg/kg/injection, schedule: Q01DX003 (ip), vehicle: saline with Tween-80) 245 % of control; (dose: 12.5 mg/kg/injection, schedule: Q01DX005 (ip), vehicle: saline) 187 % of control; (dose: 12.5 mg/kg/injection, schedule: Q04DX003 (ip), vehicle: saline with Tween-80) 172 % of control; (dose: 25.0 mg/kg/injection, schedule: Q01DX003 (ip), vehicle: saline with Tween-80) 152 % of control; (dose: 25.0 mg/kg/injection, schedule: Q04DX003 (ip), vehicle: saline with Tween-80) 156 % of control and 185 % of control. For the same compound, the T/C was 111 % of control (dose: 50.0 mg/kg/injection, schedule: Q01DX003 (ip), vehicle: saline with Tween-80) and 90 % of control (dose: 50.0 mg/kg/injection, schedule: Q01DX005 (ip), vehicle: saline).
Take `O=C(C(=O)c1cccc(CC(O)(C(F)(F)F)C(F)(F)F)n1)c1cccc(CC(O)(C(F)(F)F)C(F)(F)F)n1`: the T/C is, setting by setting: under setting [1], 91 % of control; (dose: 100.0 mg/kg/injection, schedule: Q04DX003 (ip), vehicle: saline) 95 % of control; under setting [2], 96 % of control; (dose: 200.0 mg/kg/injection, schedule: Q04DX003 (ip), vehicle: saline) 97 % of control; under setting [3], 93 % of control; (dose: 400.0 mg/kg/injection, schedule: Q04DX003 (ip), vehicle: saline) 103 % of control.
In the case of `O=C(O)C(c1ccccc1)c1ccccc1`, the T/C was 97 % of control under setting [14]; 97 % of control (dose: 100.0 mg/kg/injection, schedule: Q04DX002 (ip), vehicle: saline); 101 % of control under setting [15]; 97 % of control (dose: 200.0 mg/kg/injection, schedule: Q04DX002 (ip), vehicle: saline); 109 % of control under setting [16]; 87 % of control (dose: 400.0 mg/kg/injection, schedule: Q04DX002 (ip), vehicle: saline).
In the case of `CCOC1OC(CO)C(O)C(O)C1O` (stereo not given), the T/C is 102 % of control under setting [11], 98 % of control under setting [12] and 109 % of control under setting [13].
On to `CC(=O)Oc1cccc2c1C(=O)OC2=O`, for which the T/C was 89 % of control (dose: 100.0 mg/kg/injection, schedule: Q01DX001 (ip), vehicle: saline with Tween-80) and 108 % of control (dose: 200.0 mg/kg/injection, schedule: Q01DX001 (ip), vehicle: saline with Tween-80).
For the compound `Nc1cccc2ccc3ccc4ccccc4c3c12`, the T/C runs as follows: under setting [14], 105 % of control; under setting [15], 94 % of control; under setting [16], 97 % of control.
